According to patent US12018027B2, “Macrocyclic derivatives acting as XIa factor inhibitor” (CHINA RESOURCES BIOPHARMACEUTICAL COMPANY LIMITED, priority 2019, dated 2024):

Columns and labels:
Pharmacokinetics in rats = type: in vivo; conditions: male SD rats
Protocol: 3. Pharmacokinetics in Rats
To determine the pharmacokinetic parameters of the compounds disclosed herein in rats
1) Experimental drug: compound 1-2;
2) Experimental animals: 4 male SD rats aged 7-9 weeks, randomly divided into 2 groups, 2 rats for each group;
3) Drug preparation: a proper amount of the drug was weighed out and dissolved in a mixed solvent of DMAC:solutol:water=10:10:80 to prepare two solutions of 0.2 mg/mL and 0.5 mg/mL, respectively;
Animals in group 1 were administered with the 0.2 mg/mL drug at a dose of 0.5 mg/kg by single injection via the tail vein, and animals in group 2 were administered with the 0.5 mg/mL compound at a dose of 3 mg/kg by gavage. Animal plasma samples were collected 0.0833 (only the tail vein injection group), 0.25, 0.5, 1, 2, 4, 6, 8 and 24 h after administration. The drug concentration in plasma samples was determined using LC-MS/MS method, and the kinetic parameters of the test drug are shown in Table 3: […]

Human Factor XIa = Human Factor XIa (Homo sapiens (Human), UniProt P03951); assay: Screening assay for inhibitory activity against enzyme hFXIa (human factor XIa); type: biochemical; conditions: substrate S-2366, pH 7.4, 37° C., absorbance 405 nm
Protocol: 1. Screening Assay for Inhibitory Activity against Enzyme hFXIa (Human Factor XIa)
To Test the Inhibitory Activity of the Compounds Disclosed herein Against Human Factor XIa
100 mM Tris-HCl (Sigma, Cat. No.: T2663, Lot No.: SLBG2775)
Enzyme: Human Factor XIa (Abcam, Cat No.: ab62411), total amount of 50 μg; dissolved in assay buffer and packaged.
3) Instruments and consumables
SpectraMax 340PC multifunctional microplate reader (Molecular Devices)
384-well black transparent reaction plate (Corning, Cat. No.: 3712)
Echo liquid workstation (Labcyte)
A 384-well polypropylene compound plate (Labcyte-P-05525) was used in Echo
A 384 shallow-well polypropylene compound plate (Labcyte-LP-0200, 2.5-12 μL) was used in Echo
Mutidrop automatic dispenser (Thermo Scientific)
Mutidrop consumables (Thermo Scientific-24073290)
Test compounds were each dissolved in DMSO to prepare a 10 mM solution and stored in a nitrogen cabinet.
1) Preparation for compounds
All test compounds were prepared using Echo, subjected to gradient dilution and transferred to a 384-well reaction plate at 100 nL. The reference compound and the test samples, with an initial concentration of 200 μM, were subjected to 3-fold dilution to get 10 concentrations (the final concentration was 1 μM). To high signal wells were added DMSO, and to low signal wells were added 100 μM reference compound. Reference can be made to the sample distribution for distributions of samples and control.
1) Preparation for enzyme human factor XIa
Enzyme human factor XIa was diluted to 0.5 μg/mL with assay buffer.
3) Preparation for substrate S-2306
S-2306 was prepared at a concentration of 1 mM using the assay buffer.
4) 10 μL of 0.5 μg/mL enzyme human factor XIa was added to the reaction plate using a Mutidrop automatic dispenser and the final concentration was 5 ng/well.
5) 10 μL of 1 mM S-2306 was added to the reaction plate using a Mutidrop automatic dispenser and the final concentration was 0.5 mM.
6) Centrifugation was performed at 1000 rpm for 10 s.
7) The reaction plate was incubated in SpectraMax 340PC at 37° C. for 10 min and the absorbance was measured at 405 nm.
8) Data were analyzed using GraphPad Prism 5.0.
% inhibition rate=100%×[1—(sample reading—mean of low signal wells)/(mean of high signal wells—mean of low signal wells)]
IC50 was analyzed using […]:
Y=Bottom+(Top−Bottom)/(1+10^((LogIC50−X)*Hill Slope))
Y is % inhibition rate and X is the logarithm of the sample concentration.

human plasma = assay: Human plasma in vitro aPTT (activated partial thromboplastin time); type: biochemical
Protocol: 2. Testing of Human Plasma in vitro aPTT (Activated Partial Thromboplastin Time)
To test the anticoagulant effect of the compounds disclosed herein against human plasma in vitro
1) Plasma: fresh human venous blood was mixed well with 0.109 M sodium citrate at a ratio of 9:1, and then the mixture was centrifuged at 3000 rpm for 15 min. The upper plasma was collected and tested within 2-5 h.
2) Reagents: aPTT reagent (activated partial thromboplastin time kit, mindray), PT reagent (prothrombin time kit, mindray), and calcium chloride solution.
3) Instruments: coagulometer (Beijing Precil, C2000-4).
Test compounds were each dissolved in DMSO to prepare a 10 mM stock solution. The plasma was serially diluted to 400 μM, 200 μM, 100 μM, 50 μM, 25 μM, 12.5 μM, 6.25 μM, 3.125 μM, 1.563 μM, 0.781 μM, 0.390 μM and 0.195 μM with the 10 mM stock solution of each compound, and the blank control was 100% DMSO. The reagents, plasma and compounds were placed at corresponding positions in a coagulometer to detect the aPTT and PT of the compounds.
The concentrations of compounds corresponding to aPTT2× and PT2× (i.e., aPTT and PT of 2-fold blank control) were calculated by Prism curve fitting and the results are shown in Table 2 below: […]

Human Factor XIa, sequence (P03951 388-625): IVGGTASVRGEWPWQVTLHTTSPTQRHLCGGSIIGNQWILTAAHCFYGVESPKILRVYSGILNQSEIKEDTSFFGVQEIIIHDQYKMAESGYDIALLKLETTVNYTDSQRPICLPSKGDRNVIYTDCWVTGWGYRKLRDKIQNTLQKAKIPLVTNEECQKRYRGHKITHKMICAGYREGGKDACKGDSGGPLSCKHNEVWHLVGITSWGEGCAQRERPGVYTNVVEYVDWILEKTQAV
Human Factor XIa, sequence (P03951 19-387 partner): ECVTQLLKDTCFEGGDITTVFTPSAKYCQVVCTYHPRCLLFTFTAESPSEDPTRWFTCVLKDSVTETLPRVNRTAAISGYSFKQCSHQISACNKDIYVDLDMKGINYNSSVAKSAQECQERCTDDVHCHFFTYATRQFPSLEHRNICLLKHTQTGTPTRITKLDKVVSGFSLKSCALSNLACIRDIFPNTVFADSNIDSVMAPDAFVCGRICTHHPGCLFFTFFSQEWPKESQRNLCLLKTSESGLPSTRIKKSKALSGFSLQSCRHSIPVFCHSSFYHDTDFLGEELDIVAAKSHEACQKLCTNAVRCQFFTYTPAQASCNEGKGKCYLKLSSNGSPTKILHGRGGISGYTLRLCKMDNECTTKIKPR

| SMILES | IC50 (Human Factor XIa) [nM] | aPTT2× (concentration giving aPTT of 2-fold blank control) (human plasma) [µM] | other results |
| --- | --- | --- | --- |
| C[C@@H]1CCC[C@@H](c2ccc(-c3cc(Cl)ccc3-n3cc(Cl)nn3)oc2=O)c2cc(ccn2)-c2c(cnn2C(F)F)NC1=O (single isomer, unassigned) [Compound 1-2] | 3.9 | 0.87 | Bioavailability F (Pharmacokinetics in rats; gavage 3 mg/kg vs tail vein injection 0.5 mg/kg): 37.1%; Area under curve AUC (Pharmacokinetics in rats; gavage, 3 mg/kg): 5.205 µM·h; Time of peak concentration T1/2 (Pharmacokinetics in rats; gavage, 3 mg/kg): 3 h; Cmax (Pharmacokinetics in rats; gavage, 3 mg/kg, read-out: Peak concentration Cmax): 0.986 µM; Area under curve AUC (Pharmacokinetics in rats; tail vein injection, 0.5 mg/kg): 2.339 µM·h; Clearance Cl (Pharmacokinetics in rats; tail vein injection, 0.5 mg/kg): 0.339 L/h/kg; Half life T1/2 (Pharmacokinetics in rats; tail vein injection, 0.5 mg/kg): 1.04 h; Volume of distribution Vd (Pharmacokinetics in rats; tail vein injection, 0.5 mg/kg): 0.533 L/kg; C0 (Pharmacokinetics in rats; tail vein injection, 0.5 mg/kg, read-out: Initial concentration C0): 1.8 µM |
| C[C@@H]1CCC[C@@H](c2ccc(-c3cc(Cl)ccc3-n3ccnn3)oc2=O)c2cc(ccn2)-c2c(cnn2C(F)F)NC1=O [Compound 2-1] | 3.39 | 0.65 | – |
| C[C@H]1CCC[C@@H](c2ccc(-c3cc(Cl)ccc3-n3cc(Cl)nn3)oc2=O)c2cc(ccn2)-c2c(cnn2C(F)F)NC1=O (single isomer, unassigned) [Compound 1-4] | 34.1 | – | – |
| C[C@@H]1CCC[C@H](c2ccc(-c3cc(Cl)ccc3-n3ccnn3)oc2=O)c2cc(ccn2)-c2c(cnn2C(F)F)NC1=O [Compound 2-2] | 10.7 | – | – |

The next lines start with results.

| IC50 (Human Factor XIa) [nM] | SMILES | aPTT2× (concentration giving aPTT of 2-fold blank control) (human plasma) [µM] | other results |
| --- | --- | --- | --- |
| 21.7 | C[C@@H]1CCC[C@@H](c2ccc(-c3cc(Cl)ccc3-n3cc(C4CC4)nn3)oc2=O)c2cc(ccn2)-c2c(cnn2C(F)F)NC1=O (single isomer, unassigned) [Compound 4-1] | – | – |
| 20.4 | CCOc1cn(-c2ccc(Cl)cc2-c2ccc([C@@H]3CCC[C@@H](C)C(=O)Nc4cnn(C(F)F)c4-c4ccnc3c4)c(=O)o2)nn1 (single isomer, unassigned) [Compound 6-2] | – | – |
| 8.22 | C[C@@H]1CCC[C@@H](c2ccc(-c3cc(Cl)ccc3-n3cc(Cl)nn3)n(C)c2=O)c2cc(ccn2)-c2c(cnn2C(F)F)NC1=O (single isomer, unassigned) [Compound 5-1] | – | – |
| 3.81 | C[C@@H]1CCC[C@@H](c2ccc(-c3cc(Cl)ccc3-n3cc(C(F)F)nn3)oc2=O)c2cc(ccn2)-c2c(cnn2C(F)F)NC1=O (single isomer, unassigned) [Compound 3-1] | 1.37 | – |
